Laboratory results reported in patent publication US6479554B2, “Immunotherapeutic agents” (Celgene Corporation, priority 1996, dated 2002).

Row | melting point | SMILES
1 | 117.5 to 120 °C | COc1ccc(C(=CC#N)c2cccc([N+](=O)[O-])c2)cc1OC [Example 11, 3-(3,4-Dimethoxyphenyl)-3-(3′-nitrophenyl)acrylonitrile]
2 | 117.5 to 120 °C | COc1ccc(C(=CC#N)c2ccc([N+](=O)[O-])cc2)cc1OC [Example 14, 3-(3,4-Dimethoxyphenyl)-3-(4-nitrophenyl)acrylonitrile]
3 | 83.5 to 86.5 °C | COc1ccc(C(=CC#N)c2ccc(C)cc2)cc1OC [Example 17, 3-(3,4-Dimethoxyphenyl)-3-(4-methylphenyl)acrylonitrile]
4 | 100 to 102 °C | COc1ccc(C(=CC#N)c2ccc(F)cc2)cc1OC [Example 19, 3-(3,4-Dimethoxyphenyl)-3-(4′-fluorophenyl)acrylonitrile]
5 | 121 to 123 °C | COc1ccc(C(=CC#N)c2ccc3c(c2)OCO3)cc1OC [Example 21, 3-(3,4-Dimethoxyphenyl)-3-(3,4-methylenedioxyphenyl)acrylonitrile]
6 | 116 to 125 °C | COc1ccc(C(=CC#N)c2ccncc2)cc1OC [Example 22, 3-(3,4-Dimethoxyphenyl)-3-pyridin-4-ylacrylonitrile]
7 | 134.5 to 135.5 °C | COc1ccc(C(=CC#N)c2ccccn2)cc1OC [Example 23, 3-(3,4-Dimethoxyphenyl)-3-pyridin-2-ylacrylonitrile]
8 | 78 to 82 °C | COc1ccc(C(=CC#N)c2ccco2)cc1OC [Example 24, 3-(3,4-Dimethoxyphenyl)-3-(2-furyl)acrylonitrile]

Further lines, the compound ahead of its results:

Row | SMILES | melting point
9 | CC=C(c1ccccc1)c1ccc(OC)c(OC)c1 [Example 5, 1-(3,4-Dimethoxyphenyl)-1-phenylprop-1-ene] | 72 to 73 °C
10 | CC=C(c1ccc(OC)c(OC)c1)c1ccc(OC)c(OCC)c1 [Example 6, 1-(3,4-Dimethoxyphenyl)-1-(3-ethoxy-4-methoxyphenyl)prop-1-ene] | 65.5 to 68 °C
11 | CCOc1cc(C(=CC#N)c2ccccc2)ccc1OC [Example 8, 3-(3-Ethoxy-4-methoxyphenyl)-3-phenylacrylonitrile] | 74 to 77 °C
12 | COc1cc(OC)cc(C(=CC#N)c2ccc(OC)c(OC)c2)c1 [Example 10, 3-(3,4-Dimethoxyphenyl)-3-(3′,5′-dimethoxyphenyl)-acrylonitrile] | 88 to 90 °C
13 | COc1ccc(C(=O)c2cccc(N)c2)cc1OC [Example 13, 3,4-Dimethoxy-3′-aminobenzophenone] | 157 to 175 °C
14 | COc1ccc(C(=O)c2ccc(N)cc2)cc1OC [Example 16, 3,4-Dimethoxy-4′-aminobenzophenone] | 189 to 191 °C
15 | COc1ccc(C(=CC#N)c2ccc(-c3ccccc3)cc2)cc1OC [Example 18, 3-(4-Biphenylyl)-3-(3,4-dimethoxyphenyl)acrylonitrile] | 132 to 134 °C
16 | COc1ccc(C(=CC#N)c2ccc3ccccc3c2)cc1OC [Example 20, 3-(3,4-Dimethoxyphenyl)-3-naphth-2-ylacrylonitrile] | 121 to 123 °C
17 | CCc1ccc(C(=CC#N)c2ccc(OC)c(OC)c2)cc1CC [Example 26, 3-(3,4-Diethylphenyl)-3-(3,4-dimethoxyphenyl)acrylonitrile] | 78 to 82 °C
18 | COc1ccc(C(=O)c2c(OC)cccc2OC)cc1OC [Example 30, 2′,6′,3,4-Tetramethoxybenzophenone] | 128 to 129 °C
